Results from ChEMBL document CHEMBL4033744, “Synthesis and biological evaluation of steroidal derivatives bearing a small ring as vitamin D receptor agonists” (Bioorg Med Chem Lett, 2017).
The source made the active and inactive calls. The calls are words filed in the database; no cut-off is given here.

target: T1, Vitamin D3 receptor (Homo sapiens) (UniProt P11473); assay: Agonist activity at vitamin D receptor (unknown origin) expressed in HEK293 cells co-expressing pCMX-RXRalpha and pCMX-beta-galactosidase assessed as induction of receptor transactivation incubated for 16 to 24 hrs by luciferase reporter gene assay relative to 3-keto-LCA; type: cell-based
T1 sequence (whole entry): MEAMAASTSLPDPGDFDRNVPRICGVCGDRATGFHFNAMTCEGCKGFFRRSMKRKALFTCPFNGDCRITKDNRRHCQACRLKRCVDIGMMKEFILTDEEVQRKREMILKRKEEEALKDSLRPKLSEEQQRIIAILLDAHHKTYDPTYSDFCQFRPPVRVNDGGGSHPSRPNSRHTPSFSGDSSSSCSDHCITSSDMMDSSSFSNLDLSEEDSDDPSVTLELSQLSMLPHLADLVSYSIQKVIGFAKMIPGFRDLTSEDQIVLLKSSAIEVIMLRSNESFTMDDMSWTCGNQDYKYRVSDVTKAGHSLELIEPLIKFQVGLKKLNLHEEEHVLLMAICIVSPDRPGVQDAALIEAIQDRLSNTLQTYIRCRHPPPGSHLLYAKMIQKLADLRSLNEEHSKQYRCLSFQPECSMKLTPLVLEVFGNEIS

SMILES	Activity
CC(C)(O)CCC[C@@H]1C[C@@H]2C[C@H]3[C@@H]4CCc5cc(O)ccc5[C@H]4CC[C@]3(C)[C@]12O	Active
C[C@]12CCC(=O)C[C@H]1CC[C@@H]1[C@@H]2CC[C@@]2(C)[C@H]1CC[C@@]21C[C@@H]1CCC(=O)O	inactive
CC(C)(O)CCC[C@H]1C[C@@H]2C[C@H]3[C@@H]4CCc5cc(O)ccc5[C@H]4CC[C@]3(C)[C@@]21O	Active
CC(C)(O)CCC[C@H]1C[C@@]12CC[C@H]1[C@@H]3CCc4cc(O)ccc4[C@H]3CC[C@@]12C	Active
C[C@]12CCC(=O)C[C@H]1CC[C@@H]1[C@@H]2CC[C@@]2(C)[C@H]1CC[C@@]21C[C@H]1CCC(=O)O	inactive
CC(C)(O)CCC[C@@H]1C[C@@]12CC[C@H]1[C@@H]3CCc4cc(O)ccc4[C@H]3CC[C@@]12C	Active
C[C@]12CCC(=O)C[C@H]1CC[C@@H]1[C@@H]2CC[C@@]2(C)[C@H]1C[C@H]1C[C@H](CCC(=O)O)[C@]12O	inactive
C[C@]12CCC(=O)C[C@H]1CC[C@@H]1[C@@H]2CC[C@@]2(C)[C@H]1C[C@H]1C[C@@H](CCC(=O)O)[C@]12O	inactive

target: T2, Vitamin D3 receptor (Homo sapiens, UniProt P11473); assay: (§1) Agonist activity at vitamin D receptor (unknown origin) expressed in HEK293 cells co-expressing pCMX-RXRalpha and pCMX-beta-galactosidase assessed as induction of receptor transactivation incubated for 16 to 24 hrs by luciferase reporter gene assay; type: cell-based
T2 sequence (P11473 whole entry): T1 sequence (whole entry)

SMILES	EC50 [µM]
CC(C)(O)CCC[C@@H]1C[C@@H]2C[C@H]3[C@@H]4CCc5cc(O)ccc5[C@H]4CC[C@]3(C)[C@]12O	4.1
C[C@H](CCCC(C)(C)O)[C@H]1CC[C@H]2[C@@H]3CCc4cc(O)ccc4[C@H]3CC[C@]12C	0.85
CC(C)(O)CCC[C@@H]1C[C@@]12CC[C@H]1[C@@H]3CCc4cc(O)ccc4[C@H]3CC[C@@]12C	3.7

target: T1, Vitamin D3 receptor (Homo sapiens); assay: as §1; type: cell-based

SMILES	Activity
C[C@H](CCC(=O)O)[C@H]1CC[C@H]2[C@@H]3CC[C@@H]4CC(=O)CC[C@]4(C)[C@H]3CC[C@]12C	Active
